This note sets out measurements from patent US5545669A, “Anti-inflammatory compounds” (priority 1994, dated 1996).

pIC50: −log10 of the molar value.

As usually defined, the pIC50 is the negative decadic logarithm of the IC50, by convention in mol/L. Low values mean a high IC50, high ones a low IC50.

Format in all cases: cell-based
Assay [1] deals with LTC4 release by human monocytes. The assay can be described thus: Assay (f): stimulated eicosanoid release by human monocytes, LTC4. The following applies: Monocyte, 0.25 h, A23187 1 μM, 15 min. The procedure: (§1) Human Monocyte Isolation. Leukocyte-rich leukopaks obtained from Biological Specialties (Lansdale, Pa.) were collected from male volunteers who were not taking antiinflammatory drugs. Leukopaks were centrifuged (90×g for 15 min) twice to remove the platelet-rich plasma. The cell pellet was washed by centrifugation and resuspended in HBSS without Ca^2+ or Mg^2+. Histopaque 1077 was layered under the cell suspension and centrifuged at 400×g for 30 min to obtain the buffy coat. The interfacial buffy coat, containing monocytes and lymphocytes, was removed and saved. The buffy coat was washed twice with HBSS Without Ca^2+ or Mg^2+ by centrifugation. The cell pellet (4-6×10^8 cells/30 mls) was resuspended in iso-osmotic media (RPMI-1640, 10% heat inactivated fetal bovine serum (FBS), 0.2 mM L-glutamine, 2.5 mM HEPES) and layered over an equal volume of 46% Percol mixture (10X PBS/Percol; 9.25/0.75) and 54% iso-osmotic media and centrifuged for 30 min at 1000×g (Marshall and Roshak, Biochem. Cell Biol. 71: 331-339, 1993). The monocyte population located at the interface of the Percoll gradient was removed and washed twice in HBSS without Ca^2+ or Mg^2+.
(§2) Measurement of Stimuli-Induced Eicosanoid Release Monocytes (5×10^6 /ml) were incubated as a suspension in serum-free RPMI-1640 medium containing the vehicle DMSO (<1%) or drug for 30 min at 27° C. after which vehicle or stimuli was added for the indicated time. The stimulating agent is solubilized in DMSO and appropriate vehicle controls were included in all experiments. The amount of stimuli was chosen from the linear portion of a concentration versus product curve usually representing 60-80% maximal stimulation over the indicated incubation time at 37° C. (A23187, 1 μM,(15 min). The reaction was terminated by reduction of pH through addition of citric acid and centrifugation (10 min, 400×g, 4° C.). Cell viability was monitored before and after experiments using trypan blue exclusion. The cell-free media was decanted and stored at -70° C. until analyzed. Prostaglandin E2 and LTC4 were directly measured in cell-free media using enzyme immunoassay (EIA) kits purchased from Caymen Chemical Co. (Ann Arbor, Mich.). Sample or standard dilutions were made with appropriate media and analyzed in triplicate. Results were obtained by extrapolation from a standard curve prepared in the media and expressed as pg or ng/ml of sample.

Assay [2] relates to PGE2 release by human monocytes. In words: Assay (f): stimulated eicosanoid release by human monocytes, Prostaglandin E2. As to conditions: Monocyte, 0.25 h, A23187 1 μM, 15 min. The protocol:
as §1, §2

A further assay concerns human neutrophils. In words: Assay (c): Arachidonic acid release assay, A23187-challenged human neutrophils. The following applies: calcium ionophore A23187 2 μM. The procedure:
Human neutrophils are obtained in the laboratory using three different methods. One method uses leukophoresis packs from normal humans and neutrophils are isolated using the histopaque-1077 technique. The blood is centrifuged at 300×g for 10 minutes. The cell pellets are resuspended in PBS composed of 137 mM NaCI, 8.8 mM Na2HPO4, 1.5 mM KH2 PO4, 2.7 mM KCI (Dulbecco's Gibco Laboratories, Long Island, N.Y.) and layered over histopaque-1077 (Sigma, St. Louis, Mo.). The pellets are collected after centrifugation (300×g for 30 minutes) and washed once in PBS. The cell pellets are exposed briefly to deionized water to lyse any erythrocytes. The remaining cells are collected by centrifugation, suspended in PBS, counted and identified after cytospinning and staining. The final leukocyte preparation will be of greater than 95% purity and viability.
The second method isolates human neutrophils from fresh heparinized normal blood using the Histopaque-1077 technique. […] The remaining cells are collected by centrifugation, suspended in PBS, counted and identified after cytospinning and staining. […]
The third method isolates human neutrophils from freshly drawn heparinized normal blood using the Percoll technique. […] The neutrophils are suspended in PBS, counted and identified after cytospinning and staining. […]

Turning to `O=C(O)c1ccccc1Oc1ccc(C(F)(F)F)cc1NS(=O)(=O)c1cc(C(F)(F)F)cc(C(F)(F)F)c1` [Example 1, 2-[2-[3,5-Bis(trifluoromethyl)phenylsulfonamido]-4-trifluoromethylphenoxy]benzoic acid], the values for the pIC50 in assay [1] and in assay [2] were 6.52 and less than 4.52, respectively. Also, the “inhibition of arachidonic acid release” value with human neutrophils was “positive activity”.
